# Results as given in patent US10363261B2, “Enolase inhibitors and methods of treatment therewith” (Board of Regents, The University of Texas System, priority 2015, dated 2019).
# Key:
# human ENO1 = human ENO1 (Homo sapiens, UniProt P06733); experiment: Enolase enzymatic activity, NADH-linked pyruvate kinase/lactate dehydrogenase fluorescence assay, ENO1
# Method: (§1) Human ENO1 and ENO2 were overexpressed in the human D423 cell line and used for enzymatic assays. Inhibitors (PhAH, SF2312 and Deoxy-SF2312, Hex, Hepta, Pom-Hex, and Fosmidomycin) were incubated with the enzyme prior to addition of 5 mM 2-PG substrate. Enzymatic activity was measured by monitoring fluorescence of NADH at 340 nm Exitation/460 nm emission using an Lactate dehydrogenase/Pyruvate kinase linked assay which links the formation of PEP to the oxidation of NADH to NAD+, as we have described in published work (Muller et al., 2012). Enzymatic activity was normalized to that in the absence of the inhibitor (set to 1) and plotted as function of inhibitor concentration.
# (§2) Enolase activity was measured using two different methods, either by a fluorometric NADH-linked assay or a direct spectrophotometric assay via formation of PEP. In the fluorescent assay, enolase activity was measured via NADH oxidation in a pyruvate kinase-lactate dehydrogenase coupled assay as previously described (Muller, et al., 2012). The assay is conducted in 10 mM KCl, 5 mM MgSO4, 100 mM triethanolamine at pH 7.4, with 400 μM NADH and 2 mM ADP. 2-Phosphoglycerate (2-PGA), pyruvate kinase (PK) and lactate dehydrogenase (LDH) are provided in excess, with conversion of 2-PGA to PEP by enolase being rate limiting. PEP (with ADP) is substrate of PK; pyruvate formed by this reaction is linked to NADH oxidation by LDH. Enolase activity is determined by measuring oxidation of NADH fluorescently by excitation at 340 nm and emission at 460 nm. The substrate concentration, if not otherwise indicated, was 5 mM 2-PGA. Fluorescence was measured using Omega Fluorescence Plate Reader (BMG Labtech). Alternatively, Enolase activity was measured directly by the appearance of PEP from 2-PGA via absorption at 240 nm (Marangos, et al., 1978). The assay medium was the same, except that all the auxiliary reagents (PK/LDH, NADH, ADP) are omitted. Both assays were conducted in a 96-well plated format with the direct assay performed in UV-transmissible plates.
# [1] = test system: lactate/glucose in D423 ENO1-rescued glioma cells; experiment: 13C-NMR tracing of uniformly labeled 13C-glucose to 13C-lactate, rescued cells; details: even at 200 μM
# Method: Glucose labeled with heavy, non-radioactive, ^13C at carbon C-1 and ^13C at all carbon atoms were purchased from Cambridge Isotopes (CLM-420-1 and CLM-1396, respectively). Glucose free DMEM media was supplemented with 10 mM ^13C-1 or ^13C-all labeled Glucose. NMR metabolic tracing was performed by substituting conventional DMEM medium with glucose free DMEM medium, to which ^13C-1 glucose (Cambridge Isotopes) was supplemented at 10 mM. […] After 4 days, conditioned media was extracted with 80% methanol at −80° C., lyophilized and resuspended in D2O. Proton-decoupled ^13C NMR spectra were acquired using a 500 MHZ Bruker instrument in the M. D. Anderson NMR core facility.
# ENO2 = ENO2 (Homo sapiens, UniProt P09104); experiment: Enolase enzymatic activity and Michaelis-Menten kinetic analysis, ENO2
# Method: Human ENO1 and ENO2 were overexpressed in the human D423 cell line and used for enzymatic assays. […] Enzymatic activity was measured by monitoring fluorescence of NADH at 340 nm Exitation/460 nm emission using an Lactate dehydrogenase/Pyruvate kinase linked assay which links the formation of PEP to the oxidation of NADH to NAD+, as we have described in published work (Muller et al., 2012). Enzymatic activity was normalized to that in the absence of the inhibitor (set to 1) and plotted as function of inhibitor concentration.
# The Michaelis-Menten Kinetic analysis was performed using standard methods in the field such as those taught by Voet and Voet, 2011. The enzymatic activity of Enolase 1 or 2 v was determine over a concentration range of 10 mM to 0.5 mM 2-PG [S], in the presence of increasing concentrations of inhibitor [I].
# Native lysates of mouse tissues and human cell lines were prepared using 20 mM Tris HCl, 1 mM EDTA, and 1 mM β-mercaptoethanol at pH 7.4 and homogenized using a Polytron homogenizer three times for a period of 10 s followed by sonication, after which the lysates were cleared by centrifugation at 20,000 g for 10 minutes. Enolase activity was measured using two different methods, either by a fluorometric NADH-linked assay or a direct spectrophotometric assay via formation of PEP. In the fluorescent assay, enolase activity was measured via NADH oxidation in a pyruvate kinase-lactate dehydrogenase coupled assay as previously described (Muller, et al., 2012). The assay is conducted in 10 mM KCl, 5 mM MgSO4, 100 mM triethanolamine at pH 7.4, with 400 μM NADH and 2 mM ADP. 2-Phosphoglycerate (2-PGA), pyruvate kinase (PK) and lactate dehydrogenase (LDH) are provided in excess, with conversion of 2-PGA to PEP by enolase being rate limiting. PEP (with ADP) is substrate of PK; pyruvate formed by this reaction is linked to NADH oxidation by LDH. Enolase activity is determined by measuring oxidation of NADH fluorescently by excitation at 340 nm and emission at 460 nm. The substrate concentration, if not otherwise indicated, was 5 mM 2-PGA. Fluorescence was measured using Omega Fluorescence Plate Reader (BMG Labtech). Alternatively, Enolase activity was measured directly by the appearance of PEP from 2-PGA via absorption at 240 nm (Marangos, et al., 1978). The assay medium was the same, except that all the auxiliary reagents (PK/LDH, NADH, ADP) are omitted. Both assays were conducted in a 96-well plated format with the direct assay performed in UV-transmissible plates.
# ENO1-intact glioma cells = experiment: Toxicity to ENO1-intact glioma cells during 13C-1 glucose tracing; type: cell-based, human; details: 10 μM, four days
# Method: ^13C-1 glucose tracing by NMR treatment was performed with a concentration of SF2312 (10 μM) that is non-toxic to ENO1-intact glioma cells for four days, led to profound inhibition of glucose consumption (isomeric peaks at 97 and 93 ppm) and lactate production (single peak at 20 ppm) in the media of D423 and Gli56 ENO1 deleted but not ENO1-intact glioma cells (FIG. 33). At the same time, a single peak at 64 ppm became visible in the D423 and Gli56 ENO1-deleted cells treated with SF2312. The most likely origin of this peak is the C-3 atom glycerate, which has a reported ^13C peak of 64 ppm (Spectral Database of Organic Compounds, SDBS No. 18695) and is the atom on which the ^13C label derived from the C-1 atom on glucose is expected. […] Glycerate likely forms in response to enolase inhibition as 2-PGA or 3-PGA accumulate and (the substrates of the enzyme) spontaneously hydrolyze, or alternatively, are dephosphorylated by the action of glycerate kinase (GLYCTK, FIG. 41). These experiments were repeated with D423 ENO1-deleted and isogenic ENO1-rescued control glioma cells with both PhAH and SF2312 (FIGS. 32C & 32D). […] This effect is especially noticeable when expressed as a ratio of ^13C-glycerate to ^13C-lactate, metabolites upstream and downstream of the enolase reaction, respectively (FIG. 32D). […]
# enolase (ENO1 and ENO2) = experiment: Enolase inhibitory activity in vitro, isoform not distinguished (ENO1 and ENO2); type: biochemical, human; details: isolated enzymatic assay
# Method: as §1, §2
# ENO2, sequence (P09104 whole entry): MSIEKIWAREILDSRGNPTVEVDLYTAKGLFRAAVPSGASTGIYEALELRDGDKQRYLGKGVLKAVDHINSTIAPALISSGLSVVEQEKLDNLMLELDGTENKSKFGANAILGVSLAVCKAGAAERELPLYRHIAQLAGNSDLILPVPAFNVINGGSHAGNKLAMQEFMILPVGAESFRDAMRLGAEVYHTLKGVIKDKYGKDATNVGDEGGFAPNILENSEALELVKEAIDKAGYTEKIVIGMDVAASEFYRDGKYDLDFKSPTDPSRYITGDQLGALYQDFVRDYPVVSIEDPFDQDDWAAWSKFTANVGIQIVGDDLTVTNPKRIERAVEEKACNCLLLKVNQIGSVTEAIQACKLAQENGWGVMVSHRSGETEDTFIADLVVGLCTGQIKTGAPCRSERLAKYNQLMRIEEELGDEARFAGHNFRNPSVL
# human ENO1, sequence (P06733 whole entry): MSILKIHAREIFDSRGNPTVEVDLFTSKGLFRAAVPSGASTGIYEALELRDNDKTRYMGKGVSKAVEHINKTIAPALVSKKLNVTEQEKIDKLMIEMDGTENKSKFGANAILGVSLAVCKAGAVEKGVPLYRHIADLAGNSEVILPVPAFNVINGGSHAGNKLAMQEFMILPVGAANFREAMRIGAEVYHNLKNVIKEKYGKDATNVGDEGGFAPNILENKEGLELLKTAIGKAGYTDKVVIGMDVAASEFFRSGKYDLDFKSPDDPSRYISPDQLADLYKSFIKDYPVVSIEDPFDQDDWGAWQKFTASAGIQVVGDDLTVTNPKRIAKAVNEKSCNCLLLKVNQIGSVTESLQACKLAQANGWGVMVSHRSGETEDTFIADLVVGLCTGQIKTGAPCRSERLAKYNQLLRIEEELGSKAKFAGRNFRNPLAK
smiles,measurement,setting,value
"O=C1C(P(=O)(O)O)CC(O)N1O (racemic) [SF2312, 3-dihydroxyphosphoryl-1,5-dihydroxy-2-pyrrolidone]",IC50,human ENO1,~20 nM
same,effect on lactate/glucose in ENO1-rescued cells,[1],neither PhAH nor SF2312 decreased lactate/glucose
same,IC50,ENO2,~20 nM
same,potency against ENO2 versus ENO1 (IC50 lower / activity greater for ENO2),ENO2; ENO2 over ENO1,10 fold
same,inhibition kinetics with respect to substrate 2-PGA,ENO2; SF2312: at IC50,non-competitive kinetics
same,toxicity to ENO1-intact glioma cells,ENO1-intact glioma cells,non-toxic
same,IC50 lower than that of PhAH,enolase (ENO1 and ENO2),about 50%
